From publication PMC11087268, “A folate inhibitor exploits metabolic differences in Pseudomonas aeruginosa for narrow-spectrum targeting” (Nature Microbiology, 2024)
Values after ≈ are worked out from the molar mass of the structure shown. Values joined by “and” are separate entries in the source; they are usually repeats but may differ in a detail not shown here. Equal entries are not always repeated. Where two headings read alike, the source gives them in different places.

Legend:
[1] = system: WI-38 (embryonic lung tissue); assay: Mammalian cell cytotoxicity, WI-38; type: cell-based, human
E. faecalis = assay: Growth with or without TMI supplementation and fluorofolin, E. faecalis; type: cell-based, Enterococcus faecalis; conditions: fluorofolin 2X MIC
Method: (§1) Where listed, growth media were prepared according manufacturer recommendations: LB broth and LB broth supplemented with 0.3 mM thymine (BD Biosciences 244610, Alfa Aesar A15879), 0.3 mM methionine (Sigma-Aldrich M9625), 0.3 mM inosine (EMD Millipore 4060), cation-adjusted Mueller–Hinton II broth (CAMHB) (BD 212322) or 0.3 mM thymidine (Sigma-Aldrich T1895), Gutnick minimal media (1.0 g l^−1 K2SO4, 13.5 g l^−1 K2HPO4, 4.7 g l^−1 KH2PO4, 0.1 g l^−1 MgSO4·7H2O, 10 mM NH4Cl as a nitrogen source and 0.4% w/v glucose as a carbon source)[65].
(§2) Extended Data Fig. 3 TMI supplementation can also rescue other species from fluorofolin DHFR inhibition. […] (f) P. aeruginosa PA14 or E. coli lptd4213 treated with fluorofolin 50 μg/mL in the presence or absence of 0.3 mM thymidine. (g) E. coli lptd4213 treated with fluorofolin 50 μg/mL and SMX (78.1 μg/mL) in the presence or absence of 0.3 mM thymidine or 0.3 mM TMI supplementation, Curves represent average optical at 600 nm (OD600) of 2 biological replicates. Means are shown. Source data

E. cloacae = assay: Growth with or without TMI supplementation and fluorofolin, E. cloacae; type: cell-based, Enterobacter cloacae; conditions: fluorofolin 2X MIC
Method: as §1, §2

[2] = system: Staphylococcus epidermidis EGM-206; assay: MIC against S. epidermidis EGM-206 in LB broth; type: cell-based; conditions: EGM206, 16 h, 37 °C, OD600
Method: (§3) Overnight cultures were diluted 1:150 in LB broth and added to a 96-well plate. Antibiotics were serially diluted 1:2 and added to columns of the 96-well plate and grown at 37 °C with continuous shaking. Cell growth was measured using optical density at 600 nm (OD600). MIC assays were performed in either BioTek Synergy HT or Tecan InfiniteM200 Pro microplate readers.

[3] = system: HLF (human lung fibroblast); assay: Mammalian cell cytotoxicity, HLF; type: cell-based; conditions: 72 h, CyQUANT, read-out: IC50 Fluorofolin
Method: HK-2 (500 cells per well) (ATCC CRL-2190), HLF (500 cells per well) (Cell Applications 506K-05a), WI-38 (500 cells per well) (ATCC CCL-75) or PBMC (5,000 cells per well) (TPCS PB010C) cells were seeded in white opaque 384-well plates. After 24 h, DMSO or compounds were added in 3-fold dilutions and cells incubated for 72 h. For PBMC, CellTiter-Glo reagent was added in equal volume and incubated for 30 min, after which luminescence was read. For other cell types, CyQUANT detection reagent was added in equal volume and cells incubated for 1 h, after which fluorescence was read with standard green filter set […]. Cell toxicity was evaluated by Pharmaron.

Maximum tolerated dose = conditions: female, mouse, in vivo, sc; CD-1 mice, subcutaneous
Source text: For P. aeruginosa thigh infection model and maximum tolerated dose (MTD) studies, care and handling of female 5–6-week-old CD-1 conformed to Institutional Animal Care and Use Committee (IACUC) policies as carried out at the University of North Texas Health Science Center (Fort Worth, Texas) under UNTHSC IACUC-approved protocol nos. IACUC-2021-0003 and IACUC-2020-0039. Rodents were fed either base chow (Envigo) or base diet supplemented with 1.8 g kg^−1 thymidine (Sigma T9250) starting at 2 days before infection. All procedures were conducted in accordance with the UNTHSC IACUC-approved protocol. Animals were housed in rooms undergoing 10–15 air changes per hour. Air provided to the animal rooms was controlled for temperature and humidity and is fully monitored 24 h a day. Air pressure was balanced according to room use. Lighting was controlled in individual rooms by automatic timers with a standard 12 h on, 12 h off cycle.
MTD was determined by administration of compounds at increasing dosage until the maximum dose before adverse reactions were observed. Doses were increased in a stepwise manner from 1 mg kg^−1 to 5, 10, 25 and 50 mg kg^−1. […] The maximum tolerated dose of fluorofolin was determined to be 25 mg kg^−1 administered subcutaneously. MTD was evaluated by the UNTHSC.

[4] = system: P. aeruginosa PA14 folate metabolism (dUMP, AICAR, GAR); assay: Metabolomics (LC–MS) of treated PA14; type: cell-based, Pseudomonas aeruginosa; conditions: PA14, 15 min
Method: Metabolites were extracted by vacuum filtering 15 ml of treated cells using 0.45 μm HNWP Millipore nylon membranes and placing the filters into an ice-cold quenching solution of 40:40:20 methanol:acetonitrile:H2O. Extracts were kept on dry ice for 1 h and centrifuged at 16,000 g for 1 h at 4 °C. The supernatant was kept at -80 °C until mass spectrometry analysis. Liquid chromatography-mass spectrometry (LC-MS) analysis of metabolites was performed on an Orbitrap Exploris 240 mass spectrometer coupled with hydrophilic interaction liquid chromatography (HILIC)[68]. […] Waters 196006724), with a gradient of solvent A (95 vol. % H2O, 5 vol. % acetonitrile, with 20 mM ammonium acetate and 20 mM ammonium hydroxide, pH 9.4) and solvent B (acetonitrile). Flow rate was 0.15 ml min^-1 and column temperature was set at 25 °C. […] Raw mass spectrometry data were converted to mzXML format by MSConvert (ProteoWizard). Pick-peaking was done on […].0.8.0, Elucidata).

[5] = system: Staphylococcus aureus NRS384; assay: MIC (WuXi, Mueller–Hinton broth) against S. aureus NRS384; type: cell-based
Method: Bacterial colonies (4–8) of strains of interest were vortexed in saline and adjusted to an OD600 of 0.2. Strains were diluted 1:200 into CAMHB media in 96-well plates. Antibiotics were serially diluted 1:3 in DMSO, and 1 μl of each dilution was added to bacteria. The plates were incubated for 18–20 h at 37 °C before observation.

[6] = system: Escherichia coli lptD4213; assay: MIC against E. coli lptD4213 in LB broth; type: cell-based; conditions: LPTD4213, 16 h
Method: as §3

[7] = system: Pseudomonas aeruginosa ATTC 27853; assay: MIC against P. aeruginosa ATTC 27853 in LB broth; type: cell-based; conditions: ATTC27853, 16 h
Method: as §3

[8] = system: P. aeruginosa clinical isolates; type: cell-based, Pseudomonas aeruginosa
Method: Percent growth was calculated by dividing the OD600 of fluorofolin antibiotic-treated wells by that of vehicle-only wells.

[9] = 2× MIC (fluorofolin 6.3, TMP 250 μg ml^−1), one value per replicate

Compound: Nc1nc(N)c2c(ccc3c2ccn3Cc2ccnc(F)c2)n1 [fluorofolin]
- IC50 ([1]; Homo sapiens, WI-38, 72 h, CyQUANT, read-out: IC50 Fluorofolin): 14.4 µg/mL (≈ 46.8 µM)
- increase in IC50 compared with IRS-16 ([1]; WI-38 cells): 58.5 fold
- rescue of growth inhibition by TMI supplementation (E. faecalis): could also be rescued from fluorofolin growth inhibition by TMI supplementation
- rescue of growth inhibition by TMI supplementation (E. cloacae): could also be rescued from fluorofolin growth inhibition by TMI supplementation
- MIC [2]: 0.312 µg/mL
- IC50 [3]: 17.2 µg/mL (≈ 55.9 µM)
- MTD (Maximum tolerated dose): 25 mg/kg
- change of AICAR and dUMP ([4]; 2× MIC): significant upregulation
- Normalized Ion Counts AICAR [4, 9]: 667209 and 798823 and 294672
- Normalized Ion Counts GAR [4, 9]: 62925.5 and 135659 and 3851.78
- Normalized Ion Counts dUMP [4, 9]: 5000000 and 3000000 and 2000000
- MIC [5]: 0.03 µg/mL (≈ 0.0973 µM)
- MIC [6]: 0.02 µg/mL
- MIC [7]: 25 µg/mL
- isolates inhibited [8]: 90%
- number of isolates inhibited [8]: 69
- sensitivity of isolates with dfrB2 [8]: fluorofolin-sensitive
- number of resistant isolates ([8]; 22 blood isolates, 50 μg ml^−1): None
- number of resistant isolates ([8]; 55 CDC isolates, 50 μg ml^−1): 8
- clinical isolates resistant ([8]; 77 P. aeruginosa clinical isolates (55 CDC/FDA, 22 blood), 50 μg ml^−1, growth inhibition >80% = sensitive): 10.4%
- sensitivity of carbapenemase isolates ([8]; clinical isolates expressing KPC-5 and NDM-1): remained sensitive
- clinical isolates resistant ([8]; earlier manuscript version quoted by reviewers, antibiotic resistance isolate bank only): 14.5%
